Measurements taken from patent US20080008707A1, “Denatured collagen peptides and uses thereof” (Cell-Matrix, Inc., priority 2006, published 2008).
Values belong to the substance of their own block, whether it stands above or below them. Square brackets hold non-standard residues; d marks the D form. Ends that are not written are not given here. Hyp = O=C(O)[C@@H]1C[C@@H](O)CN1

Key:
[1] = system: D93 binding to human denatured-collagen IV; experiment: Competition ELISA: synthetic peptides blocking D93 binding to heat denatured collagen IV; settings: average of two studies, vs 1% BSA/PBS alone
Description: (§1) The ELISA was conducted as follows: wells of a 96-well microtiter plate (Immulon, 4 HBX flat-bottomed, Thermo Electron Corporation, Waltham, Mass.) were coated with 100 μL/well of dn-collagen IV at 10 μg/mL in Phosphate Buffered Saline (PBS) overnight at 4° C. The plate was washed 3 times (3×) with PBS containing 0.05% (v/v) Tween-20 (PBST) using an automated plate washer.
(§2) The plate was blocked by adding 300 μL/well of 1% BSA (w/v) in PBS for 1 hour at 25° C. followed by washing 3× in PBST as above.
(§3) Solutions of D93 or HUI77 were prepared with various concentrations of peptide or antibody inhibitor and incubate for 15 minutes. D93 or HUI77 was prepared at 200 ng/mL in 1% BSA/PBS.
(§4) For antibody blocking studies using synthetic peptides: peptide inhibitor stock solutions were prepared at 2 mM, 0.2 mM, 0.02 mM, and 0.002 mM in 1% BSA/PBS. 500 μL of a 2 mM peptide solution in 1% BSA/PBS was prepared and diluted 1:10 in 500 μL a total of three times to make peptide inhibitor concentrations.
(§5) 200 μL of D93 or HUI77 at 200 ng/mL solution was combined with 200 μL of peptide or antibody inhibitor solution and incubated for 15 minutes at room temperature.
(§6) D93 or HUI77 with various concentrations of inhibitors (2 mM, 0.2 mM, 0.02 mM, and 0.002 mM) were added to microplate wells and incubated for 1 hour at 25° C. The plate was washed 3× in PBST as above.
(§7) To each microtiter plate well, 100 μL of diluted anti-human IgG or anti-mouse IgM conjugated to horseradish peroxidase (HRP) in PBST was added and incubated for one hour at 25° C.: (a) for D93: Goat anti-human IgG-HRP (Jackson ImmunoResearch, Catalog No. 109-035-088) was used at 1:20,000 and (b) for HUI77: Goat anti-mouse IgM-HRP was used at 1:4,000. Plates were washed 3× in PBST as above.
(§8) Tetramethylbenzidine (TMB) substrate (100 μL; Pierce Chemicals)) was added to wells and the plates were allowed to develop at room temperature for 15 minutes in the dark. Substrate development was stopped by adding 50 μL/well of 2N H2SO4. The microtiter […] plates were read at 450 nm within five minutes of adding the H2SO4. Reactivity was measured with a microplate reader (Molecular Devices, Sunnyvale, Calif.) at a wavelength of 450 nm and analyzed using SOFTMax® PRO4.0 (Molecular Devices). All samples were tested in triplicate.
(§9) Individual peptides with amino acid substitutions and deletions were also synthesized based on the primary and secondary peptide arrays. […] The inhibitory activity of the individual peptides was tested by ELISA as previously described to measure binding of D93 or HUI77 to denatured collagen where peptides and antibodies were prepared at a 2× concentration and pre-incubated for 15 minutes prior to adding to microtiter plates coated with dn-collagen.
(§10) 96-well plates were coated with 100 μL/well of denatured (dn) collagen IV at 10 μg/mL in phosphate buffered saline (PBS) overnight at 4° C. followed by washing the plates in an automated plate washer 3 times in PBS containing 0.05% (v/v) Tween-20 (PBST). Non-specific binding was prevented by blocking the wells by adding 300 μL/well of 1% bovine serum albumin (BSA) (w/v) in PBS for 1 hour (hr) at 25° C. The plates were washed as above.
(§11) Solutions of D93 and HUI77 antibodies were prepared with various concentrations of inhibitor and incubated for 15 minutes. Briefly, 20 mLs of D93 or HUI77 were prepared at 200 ng/mL in 1% BSA/PBS. Solutions of peptide inhibitors (2 mM, 0.2 mM, […]) were prepared in 1% BSA/PBS. Equal volumes of antibodies and peptide inhibitors were combined: 200 μL of D93 or HUI77 (200 ng/mL solution) with 200 μL of each peptide solution.
(§12) 100 μL/well of D93 or HUI77 at 100 ng/mL with various concentrations of inhibitors were added to the wells in triplicate and incubated for 1 hour at 25° C. The plates were washed as described above.
(§13) 100 μL/well of secondary horseradish peroxidase (HRP)-conjugated antibody in PBST was added to each well and incubated for 1 hour (hr) at 25° C. […]

[2] = system: HUI77 binding to denatured collagen IV; experiment: Competition ELISA: synthetic peptides blocking HUI77 binding to heat denatured collagen IV; design: species or system human; settings: average of two studies
Description: as §1, §2, §3, §4, §5, §6, §7, §8, §9, §10, §11, §12, §13

[3] = peptide inhibitor concentration 1 μM
[4] = peptide inhibitor concentration 10 μM
[5] = peptide inhibitor concentration 100 μM
[6] = peptide inhibitor concentration 1000 μM
[7] = peptide inhibitor concentration 10 μM, listed as 15 (32), 10 µM
[8] = peptide inhibitor concentration 100 μM, listed as 15 (32), 100 µM
[9] = peptide inhibitor concentration 1000 μM, listed as 15 (32), 1000 µM
[10] = peptide inhibitor concentration 10 μM, listed as 2 (18), 10 µM
[11] = peptide inhibitor concentration 100 μM, listed as 2 (18), 100 µM
[12] = peptide inhibitor concentration 1000 μM, listed as 2 (18), 1000 µM
[13] = peptide inhibitor concentration 100 μM, listed as 18 (22), 100 µM
[14] = peptide inhibitor concentration 1000 μM, listed as 18 (22), 1000 µM

Substance: PGPPGPPGP (PGP[Hyp]GP[Hyp]GP) [SEQ ID NO: 29]
% INHIBITION OF BINDING OF D93 TO HUMAN DENATURED-COLLAGEN IV [1, 3]: 11.5%
% INHIBITION OF BINDING OF D93 TO HUMAN DENATURED-COLLAGEN IV [1, 4]: 40.5%
% INHIBITION OF BINDING OF D93 TO HUMAN DENATURED-COLLAGEN IV [1, 5]: 87.5%
% INHIBITION OF BINDING OF D93 TO HUMAN DENATURED-COLLAGEN IV [1, 6]: 93.5%
% INHIBITION OF BINDING OF HUI77 TO DENATURED COLLAGEN IV [2, 4]: 10.5%
% INHIBITION OF BINDING OF HUI77 TO DENATURED COLLAGEN IV [2, 5]: 12.5%
% INHIBITION OF BINDING OF HUI77 TO DENATURED COLLAGEN IV [2, 6]: 63%

Substance: LPGPPGPPGPY [SEQ ID NO: 18]
% INHIBITION OF BINDING OF D93 TO HUMAN DENATURED-COLLAGEN IV ([1]; peptide inhibitor concentration 1 μM, listed as 2 (18), 1 µM): 6%
% INHIBITION OF BINDING OF D93 TO HUMAN DENATURED-COLLAGEN IV [1, 10]: 2%
% INHIBITION OF BINDING OF D93 TO HUMAN DENATURED-COLLAGEN IV [1, 11]: 7%
% INHIBITION OF BINDING OF D93 TO HUMAN DENATURED-COLLAGEN IV [1, 12]: 46%
% INHIBITION OF BINDING OF HUI77 TO DENATURED COLLAGEN IV [2, 10]: 5.5%
% INHIBITION OF BINDING OF HUI77 TO DENATURED COLLAGEN IV [2, 11]: 6.5%
% INHIBITION OF BINDING OF HUI77 TO DENATURED COLLAGEN IV [2, 12]: 4.5%

Second part, the substance after the results:

% INHIBITION OF BINDING OF D93 TO HUMAN DENATURED-COLLAGEN IV [1, 3]: 7%
% INHIBITION OF BINDING OF D93 TO HUMAN DENATURED-COLLAGEN IV [1, 4]: 6%
% INHIBITION OF BINDING OF D93 TO HUMAN DENATURED-COLLAGEN IV [1, 5]: 3.5%
% INHIBITION OF BINDING OF D93 TO HUMAN DENATURED-COLLAGEN IV [1, 6]: 7.5%
% INHIBITION OF BINDING OF HUI77 TO DENATURED COLLAGEN IV [2, 4]: 2.5%
% INHIBITION OF BINDING OF HUI77 TO DENATURED COLLAGEN IV [2, 5]: 8%
% INHIBITION OF BINDING OF HUI77 TO DENATURED COLLAGEN IV [2, 6]: 3.5%
Substance: GPPG [SEQ ID NO: 35]

% INHIBITION OF BINDING OF D93 TO HUMAN DENATURED-COLLAGEN IV ([1]; peptide inhibitor concentration 1 μM, listed as 15 (32), 1 µM): 8%
% INHIBITION OF BINDING OF D93 TO HUMAN DENATURED-COLLAGEN IV [1, 7]: 17%
% INHIBITION OF BINDING OF D93 TO HUMAN DENATURED-COLLAGEN IV [1, 8]: 64%
% INHIBITION OF BINDING OF D93 TO HUMAN DENATURED-COLLAGEN IV [1, 9]: 92.5%
% INHIBITION OF BINDING OF HUI77 TO DENATURED COLLAGEN IV [2, 7]: 6%
% INHIBITION OF BINDING OF HUI77 TO DENATURED COLLAGEN IV [2, 8]: 7.5%
% INHIBITION OF BINDING OF HUI77 TO DENATURED COLLAGEN IV [2, 9]: 77%
Substance: GPPGPPG (GPXGPXG; MOD_RES (3) Hydroxyproline; MOD_RES (6) Hydroxyproline) [SEQ ID NO: 32]

% INHIBITION OF BINDING OF D93 TO HUMAN DENATURED-COLLAGEN IV ([1]; peptide inhibitor concentration 1 μM, listed as 18 (22), 1 µM): 6%
% INHIBITION OF BINDING OF D93 TO HUMAN DENATURED-COLLAGEN IV ([1]; peptide inhibitor concentration 10 μM, listed as 18 (22), 10 µM): 5%
% INHIBITION OF BINDING OF D93 TO HUMAN DENATURED-COLLAGEN IV [1, 13]: 3%
% INHIBITION OF BINDING OF D93 TO HUMAN DENATURED-COLLAGEN IV [1, 14]: 17.5%
% INHIBITION OF BINDING OF HUI77 TO DENATURED COLLAGEN IV [2, 13]: 9%
% INHIBITION OF BINDING OF HUI77 TO DENATURED COLLAGEN IV [2, 14]: 6%
Substance: LPGPPGPPG [SEQ ID NO: 22]
